Laboratory results taken from patent US10112918B2, “15-oxospiramilactone derivatives, preparation method and uses thereof” (Kunming Institute of Botany, The Chinese Academy of Sciences, priority 2013, dated 2018).

System: SMMC-7721 (human hepatoma cells)
Assay: MTT inhibition of tumor cell growth, SMMC-7721
Format: cell-based
Conditions: Homo sapiens, SMMC-7721, 48 h
Summary of the method: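 IC50 derived by Reed and Muench two-point method from A595 after MTT (4 h) and overnight 10% SDS solubilization. Compound treatment lasted 48 h at 37 °C, screened at 40 μM then 5 concentrations for actives, in triplicate; 5000-10000 cells/well in 10% FBS medium.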

Measured: IC50

C=C1C(=O)[C@]23CC[C@H]1CC2[C@@]12CCC[C@@](C)(COC1=O)C2C[C@H]3O (stereo partly drawn) [Compound 1, 15-oxospiramilactone]
3.96 µM: Table 1, 7-hydroxy derivatives of S-3 | Table 2, derivatives having potential Michael reaction acceptor | Table 3, single Michael reaction acceptor, modified lactonic ring | Table 4, derivatives obtained by reduction of the lactonic ring | Table 5, derivatives having double Michael reaction acceptor | Table 7 (first), alkaloid derivatives
